# Measured values as given in PMC6097915 (ACS chemical biology, 2018).
# Ends that are not written are not given here.
# Test system: WT MG1655 E. coli
# Type: cell-based
# Details: 6-hr period, aerated EZRDM medium, 30°C, by OD, successive two-fold dilutions in 96 well plates
row,Compound,MIC (minimum inhibitory concentration)
1,CC[C@H](C)[C@H](NC(=O)[C@H](CCCCN)NC(=O)[C@H](CCC(=O)O)NC(=O)[C@H](CCCCN)NC(=O)[C@H](CO)NC(=O)[C@H](CCCCN)NC(=O)[C@H](CCCNC(=N)N)NC(=O)[C@H](Cc1ccccc1)NC(=O)[C@H](Cc1ccccc1)NC(=O)[C@H](CC(=O)O)NC(=O)CNC(=O)[C@H](CC(C)C)NC(=O)[C@@H](N)CC(C)C)C(=O)NCC(=O)N[C@@H](CCCCN)C(=O)N[C@@H](CCC(=O)O)C(=O)N[C@@H](Cc1ccccc1)C(=O)N[C@@H](CCCCN)C(=O)N[C@@H](CCCNC(=N)N)C(=O)N[C@H](C(=O)N[C@H](C(=O)N[C@@H](CCC(N)=O)C(=O)N[C@@H](CCCNC(=N)N)C(=O)N[C@H](C(=O)N[C@@H](CCCCN)C(=O)N[C@@H](CC(=O)O)C(=O)N[C@@H](Cc1ccccc1)C(=O)N[C@@H](CC(C)C)C(=O)N[C@@H](CCCNC(=N)N)C(=O)N[C@@H](CC(N)=O)C(=O)N[C@@H](CC(C)C)C(=O)N[C@H](C(=O)N1CCC[C@H]1C(=O)N[C@@H](CCCNC(=N)N)C(=O)N[C@H](C(=O)N[C@@H](CCC(=O)O)C(=O)N[C@@H](CO)C(=O)O)[C@@H](C)O)C(C)C)[C@@H](C)CC)C(C)C)[C@@H](C)CC [LL-37],4 µM
2,KWKLFKKIEKVGQNIRDGII-KAGPAVAVVGQATQIAK-NH2 [Cecropin A],0.9 µM
3,KWKLFKKIGAVLKVL-NH2 [CM15],5 µM
